Test results published in patent US20230029496A1, “AMINO ACID ALTERNATIVE CURING SYSTEM” (THE TEXAS A&M UNIVERSITY SYSTEM, priority 2019, published 2023).
Values joined by “and” are separate entries in the source; they are usually repeats but may differ in a detail not shown here. Equal values may be shown once. Marks after values point to notes of the source that are not given here.

Key:
eNOS system = experiment: Whole muscle injection or immersion of pork loin/tenderloin with L-arginine test brine without phosphate (Example 9): pH and cured color
Protocol: Two (N=2) pork loins were procured from the same batch previously described (Mar. 18, 2019 pack date). […] Initial muscle pH was prior to and after injection/immersion and the brine pH was measured as well (Table 11). […] No sodium tri-polyphosphate was added to the brine, only water, salt, arginine, and sodium erythorbate in the same concentration/percentage used for prior benchtop laboratory tests. […] Phosphate was eliminated from the test brine to decrease pH to increase the likelihood of the L-arginine activating the eNOS system found within the meat.
Four (N=4) tenderloins fabricated from four pork loins (Mar. 18, 2019 pack date) were subjected to immersion curing by placing them into the remaining (leftover) test brine (no injection) for approximately 18 hr. were immersed in the remaining brine to simulate previous test tube trials.
After thermal processing, each sample was sliced to determine if any nitrosylation or cure color formation occurred. […] Even though phosphate was not included in the formulation the brine pH was still high. […] It appears that the concentration of L-arginine and the high brine pH may not be at the right amount/level to achieve the desired cured meat reaction. Based on these product failures, it was decided to go back to use the original protocol used in laboratory testing—but use a waterproof sausage casings to create a “pilot plant tube” to make sure the results seen in the laboratory could be replicated in a pilot plant setting.

[1] = tested on: Nitric Oxide Synthase (NOS) system; experiment: Cure efficiency (NO-heme, total heme, nitrosylation) of cooked pre- and post-rigor pork semimembranosus muscle (Example 13); assay type: biochemical
Protocol: Cooked meat samples were analyzed for the degree of nitrosylation through residual nitrite from the Pearson and Tauber method from the modified Hornsey's procedure for analyzing small samples [103] from the supernatant and pellet. 2 mL or 2 g of the samples were treated with acetone to measure NO-heme concentration and for total heme concentration, 2 mL or 2 g of the samples were treated with acetone and hydrochloric acid. Both samples were measured using a spectrophotometer (2100 Series Spectrophotometer, Unico, Dayton, N.J.) and a 1 cm quartz cuvette. NO-heme concentration (ppm acid hematin) was read at 540 nm, and total heme concentration (ppm acid hematin) was determined at 640 nm to determine nitrosylation as the indication of the effectiveness of L-arginine in curing the samples. This procedure measured the conversion levels of myoglobin to nitrosohemochromagen, the cured meat color, and the amount of conversion as compared to the total pigmentation within the sample.
Curing efficiency or nitrosylation is calculated as the percentage conversion of NO-heme to total heme. Cure efficiency is the percentage of total pigment converted to nitroso pigment and indicates the degree of cured color fading. Cured meat pigment is extracted in a solution of 80% acetone and 20% water that extracts cured pigment heme. Total heme pigments are extracted using an acidified acetone solution that extracts heme from all heme proteins as first used by Hornsey. NO-heme concentration (as ppm acid hematin)=sample A540×290 determines the specific cure color pink from the rest of the heme pigmentation of the sample. Total heme concentration (ppm acid hematin)=sample A640×680 determines the total heme pigmentation of the sample. Cure efficiency (%)=(ppm of nitrosoheme […]ppm of total pigment)×100 and indicates how much of the product is cured and holds the cured pink stability once cooked.

NOS system = experiment: NO-heme, total heme, nitrosylation and cured color in test tube pork loin sausages (Example 11)
[2] = 2 mM L-arginine, cooked post rigor pellet
[3] = 2 mM L-arginine, cooked post rigor supernatant
[4] = 2 mM L-arginine, cooked pre-rigor pellet
[5] = 2 mM L-arginine, cooked pre-rigor supernatant
[6] = 4 mM L-arginine, cooked post rigor pellet
[7] = 4 mM L-arginine, cooked post rigor supernatant
[8] = 4 mM L-arginine, cooked pre-rigor pellet
[9] = 4 mM L-arginine, cooked pre-rigor supernatant
[10] = 8 mM L-arginine, cooked post rigor pellet
[11] = 8 mM L-arginine, cooked post rigor supernatant
[12] = 8 mM L-arginine, cooked pre-rigor pellet
[13] = 8 mM L-arginine, cooked pre-rigor supernatant
[14] = 16 mM L-arginine, cooked post rigor pellet
[15] = 16 mM L-arginine, cooked post rigor supernatant
[16] = 16 mM L-arginine, cooked pre-rigor pellet
[17] = 16 mM L-arginine, cooked pre-rigor supernatant
[18] = 32 mM L-arginine, cooked post rigor pellet
[19] = 32 mM L-arginine, cooked post rigor supernatant
[20] = 32 mM L-arginine, cooked pre-rigor pellet
[21] = 32 mM L-arginine, cooked pre-rigor supernatant
[22] = High (5000 ppm) L-arginine, 8 days post thermal processing
[23] = High (5000 ppm) L-arginine, one day after thermal processing

N=C(N)NCCC[C@H](N)C(=O)O [L-arginine]
nitrosylation or cure color formation after thermal processing (eNOS system; injected loin sections and immersion cured tenderloins, cooked to 145° F.): no color change | End pH (eNOS system; loin, 10% injection of test brine (Table 10)): 5.56 | End pH (eNOS system; loin, 15% injection of test brine (Table 10)): 5.60 | End pH (eNOS system; loin, 20% injection of test brine (Table 10)): 5.62 | End pH (eNOS system; loin, 25% injection of test brine (Table 10)): 6.51 | End pH (eNOS system; tenderloin, immersion in test brine (Table 10) approximately 18 hr): 6.10 and 6.15 and 6.13 and 6.12 | Brine pH (eNOS system; test brine of Table 10: L-arginine 5574.90 ppm, no phosphate): 10.79 | NO-Heme [1, 2]: 16.10^b ppm | Nitrosylation [1, 2]: 31.22^a % | Total Heme [1, 2]: 62.56^a ppm | NO-Heme [1, 3]: 23.76^a ppm | Nitrosylation [1, 3]: 61.38^a % | Total Heme [1, 3]: 64.43^a ppm | NO-Heme [1, 4]: 19.02^a ppm | Nitrosylation [1, 4]: 52.09^a % | Total Heme [1, 4]: 61.48 ppm and 61.48^ab ppm | NO-Heme [1, 5]: 26.02 ppm and 26.02^ab ppm | Nitrosylation [1, 5]: 60.23^a % | Total Heme [1, 5]: 50.43^a ppm | NO-Heme [1, 6]: 19.72 ppm and 19.72^ab ppm | Nitrosylation [1, 6]: 35.19^a % | Total Heme [1, 6]: 67.72^a ppm | NO-Heme [1, 7]: 22.81^a ppm | Nitrosylation [1, 7]: 55.90^a % | Total Heme [1, 7]: 73.33^a ppm | NO-Heme [1, 8]: 18.82^a ppm | Nitrosylation [1, 8]: 49.31^a % | Total Heme [1, 8]: 52.07 ppm and 52.07^ab ppm | NO-Heme [1, 9]: 28.17 ppm and 28.17^ab ppm | Nitrosylation [1, 9]: 70.03^a % | Total Heme [1, 9]: 40.86^a ppm | NO-Heme [1, 10]: 18.34 ppm and 18.34^ab ppm | Nitrosylation [1, 10]: 35.53^a % | Total Heme [1, 10]: 63.58^a ppm | NO-Heme [1, 11]: 25.98^a ppm | Nitrosylation [1, 11]: 79.27^a % | Total Heme [1, 11]: 62.90^a ppm | NO-Heme [1, 12]: 16.38^a ppm | Nitrosylation [1, 12]: 31.43^a % | Total Heme [1, 12]: 80.07 ppm and 80.07^ab ppm | NO-Heme [1, 13]: 32.98^a ppm | Nitrosylation [1, 13]: 75.71^a % | Total Heme [1, 13]: 45.11^a ppm | NO-Heme [1, 14]: 18.42 ppm and 18.42^ab ppm | Nitrosylation [1, 14]: 62.80^a % | Total Heme [1, 14]: 51.68^a ppm | NO-Heme [1, 15]: 20.54^a ppm | Nitrosylation [1, 15]: 52.33^a % | Total Heme [1, 15]: 54.46^a ppm | NO-Heme [1, 16]: 26.56^a ppm | Nitrosylation [1, 16]: 55.29^a % | Total Heme [1, 16]: 123.31 ppm and 123.31^a ppm | NO-Heme [1, 17]: 22.45 ppm and 22.45^ab ppm | Nitrosylation [1, 17]: 55.02^a % | Total Heme [1, 17]: 42.05^a ppm | NO-Heme [1, 18]: 27.33 ppm and 27.33^a ppm | Nitrosylation [1, 18]: 34.51^a % | Total Heme [1, 18]: 85.11^a ppm | NO-Heme [1, 19]: 25.50^a ppm | Nitrosylation [1, 19]: 104.27^a % | Total Heme [1, 19]: 59.73^a ppm | NO-Heme [1, 20]: 33.37^a ppm | Nitrosylation [1, 20]: 86.11^a % | Total Heme [1, 20]: 53.72 ppm and 53.72^ab ppm | NO-Heme [1, 21]: 27.67^ab ppm | Nitrosylation [1, 21]: 66.20^a % | Total Heme [1, 21]: 44.94^a ppm | NO-Heme (NOS system; [22]): 14.59^a ppm | Nitrosylation (NOS system; [22]): 38.65^a % | Total Heme (NOS system; [22]): 37.4^a ppm | NO-Heme (NOS system; [23]): 13.43^b ppm | Nitrosylation (NOS system; [23]): 60.58^b % | Total Heme (NOS system; Low (1000 ppm) L-arginine, 8 days post thermal processing): 28.56^b ppm | Nitrosylation (NOS system; Low (1000 ppm) L-arginine, one day after thermal processing): 37.05^a % | decrease in nitrosylation (NOS system; during 8 days of refrigerated vacuum packaged storage): 38-45%
